According to patent EP0471516A1, “Tricyclic heterocyclic derivatives” (IMPERIAL CHEMICAL INDUSTRIES PLC, priority 1990, dated 1992):
pIC50: −log10 of the molar value.

What was measured:
topoisomerase-II = experiment: Test (a): in vitro topoisomerase-II interaction assay, DNA fragmentation of labelled pUC18 plasmid; assay type: biochemical, human; conditions: test compound at 100 µM; for activity in Test (a): DNA fragmentation with topoisomerase-II from HeLa cells
Experimental: (a) An in vitro assay which determines the ability of a test compound to interact with the enzyme topoisomerase-II, obtained in partially purified form from human HeLa cervical carcinoma cells grown in cell culture. Aliquots of the topoisomerase-II so obtained are added to a mixture of plasmid DNA [0.5 ng of a linearised pUC18 plasmid labelled with [³²P]-ATP], test compound (dissolved in dimethylsulphoxide) and a conventional buffer solution comprising essential salts, bovine serum albumin, ATP, EDTA and 2-mercaptoethanol. The mixture is incubated at 30°C for 10 minutes. Sodium dodecylsulphate and proteinase K are added in turn to give final concentrations of 1% w/v and 2 mg/ml respectively and the mixture is heated to 45°C to effect proteolysis. The resultant mixture is analysed by electrophoresis on a polyacrylamide gel at pH 8.3 and 450 volts for one hour. Thereafter the gel is fixed, dried and autoradiogrammed to determine the extent of DNA fragmentation.

[1] = test system: small-cell lung cancer cell line N417A; experiment: Test (b): growth inhibition of N417A cells in culture, tetrazolium salt method; assay type: cell-based; conditions: read-out: IC₅₀
From the text: (b) Any assay which determines the ability of a test compound to inhibit the growth of the small-cell lung cancer cell line N417A in cell culture. The test is similar to that described by T. Mosmann (J. Immunol. Meths., 1983, 65, 55-63) but using the tetrazolium salt method of J. Carmichael et al. (J. Cancer Res., 1987, 47, 936-942) to assess the reductive capacity of any viable cells.

| etoposide concentration giving activity equivalent to the test compound in Test (a) (topoisomerase-II) [µM] | activity in Test (a) (topoisomerase-II) | pIC50 [1] | Compound |
| --- | --- | --- | --- |
| 100 | significant activity | 6.10 | COc1cc(Cn2c3ccccc3c(=O)c3ccc(S(=O)(=O)CCN(C)C)cc32)cc(OC)c1O [3-(2-dimethylaminoethylsulphonyl)-10-(4-hydroxy-3,5-dimethoxybenzyl)-9,10-dihydroacridin-9-one] |
| 25 | significant activity | 6.40 | COc1cc(Cn2c3ccccc3c(=O)c3ccc(Cl)cc32)cc(OC)c1O [3-chloro-10-(4-hydroxy-3,5-dimethoxybenzyl)-9,10-dihydroacridin-9-one] |
| 50 | significant activity | 5.43 | COc1cc(Cn2c3ccccc3c(=O)c3cccnc32)cc(OC)c1O [10-(4-hydroxy-3,5-dimethoxybenzyl)-5,10-dihydrobenzo[b][1,8]naphthyridin-5-one] |
